Legend:
senescent PSC27 cells [1] = test: RNA-seq / GSEA expression profile of BLEO-induced senescent PSC27 cells; format: cell-based, human
Procedure: Whole-transcriptome sequencing was performed on the primary human prostate stromal cell line PSC27 under different treatment conditions. Total RNA samples were obtained from stromal cells. Their integrity was verified by Bioanalyzer 2100 (Agilent), RNA was sequenced by Illumina HiSeq X10, and gene expression levels were quantified by software package rsem (https://deweylab.github.io/rsem/). Briefly, rRNA was depleted from RNA samples with the RiboMinus Eukaryote Kit (Qiagen, Valencia, Calif., USA); and according to the manufacturer's instructions, TruSeq Stranded Total RNA Preparation Kits (Illumina, San Diego, Calif.), USA) was used to construct a strand-specific RNA-seq library before deep sequencing.
Paired-end transcriptomic reads were mapped to a reference genome (GRCh38/hg38), and reference-annotation was performed from Gencode v27 using the Bowtie tool. Duplicate reads were identified using the picard Tools (1.98) script to mark duplicates (https://github.com/broadinstitute/picard), and only non-duplicate reads were retained. Reference splice junctions were provided by reference transcriptome (Ensembl Build 73). FPKM values were calculated with Cufflinks, and Cufflinks maximum likelihood estimation function was used to call differential gene expression. Genes with significant changes in expression were defined by false discovery rate (FDR)-corrected P-values<0.05, and only Ensembl Genes 73 with status “Known” and biotype “coding” were used for downstream analysis.
Next, Trim Galore (v0.3.0) (http://www.bioinformatics.babraham.ac.uk/projects/trim_galore/) was used to trim the reads, while the quality assessment was carried out by using FastQC (v0.10.0) (http://www.bioinformatics.bb src.ac.uk/projects/fastqc/). Subsequently, a preliminary analysis of the raw data was perform on a free online platform, Majorbio I-Sanger Cloud Platform (www.i-sanger.com), by using DAVID bioinformatics platform (https://david.ncifcrf.gov/) and Ingenuity Pathways Analysis (IPA) program (http://www.ingenuity.com/index.html), the raw data were deposited in the NCBI Gene Expression Omnibus (GEO) database with access code GSE156448.
Based on the data obtained from the preliminary analysis of RNA-seq, analyzed and compared each differentially expressed significant gene, the genes were sorted using the “wald statistics” obtained from DESeq2, GSEA was performed on the sorting lists of all planning gene sets available in MSigDB (http://software.broadinstitute.org/gsea/msigdb). DESeq2 independent filtering was based on the average of normalized read counts to select genes with very low expression levels. The GSEA signature of SASP was as described in our previous publication (Zhang et al., 2018a).

aged C57BL/6 mice = test: Lifespan study in aged C57BL/6 mice; format: in vivo; conditions: from age 24-27 months
Procedure: Starting at 24 to 27 months of age, C57BL/6 mice received intraperitoneal administration of vehicle or PCC1 every two weeks (n=80 for vehicle group; n=91 for PCC1 group). The median survival of animals in each group was calculated and indicated. ****, P<0.0001.
Starting at 24 to 27 months of age, C57BL/6 mice received intraperitoneal administration of vehicle or PCC1 every two weeks (n=80 for vehicle group; n=91 for PCC1 group). The median lifetime survival of animals in each group was calculated and indicated. ****, P <0.0001.
For the cell transplantation study, we obtained […] male C57BL/6 mice by serial rearing in the SPF animal platform, with 4 to 5 animals per cage. We first sorted the mice by body weight from low to high, and then selected mice with similar body weights. Next, the mice were assigned to senescence (SEN) or control (CTRL) transplant treatment at each interval using a random number generator, while the middle mice were assigned to the other treatment, so that the body weights of the senescence and control transplant mice were matched. One month after cell transplantation, when the mice were 18 months old, physical function tests were performed. After that, no further testing was done on the mice other than checking their cages. The earliest deaths occurred approximately 2 months after the last physical function test. […]

senescent PSC27 cells [2] = test: Caspase 3/7 activity / drug-induced apoptosis in senescent cells; format: cell-based, human
Procedure: PSC27 cells gradually entered the senescent stage after being treated with BLEO for 12 hours under culture conditions. 50 μM PCC1 was added to the medium of senescent cells starting from day 7, NucLight Rapid Red reagent was used to label the cells, and caspase 3/7 reagent (IncuCyte) was used for apoptosis detection. Caspase 3/7 activity was detected every 4 hours (n=3).
Statistical differences are obtained by two-way ANOVA (Turkey' test).
PSC27 cells were plated in a 96-well dish, and the cells were induced to senescence under the treatment of 50 μg/mL BLEO. PCC1 and ABT263 were added at concentrations of 50 μM and 1.0 μM, respectively. Cell culture medium was supplemented with Incucyte Nuclight fast Red Reagent (Essen Bioscience) and Incucyte C-3/7 Apoptosis Reagent (Essen Bioscience). Representative field of view was selected to take pictures.

[3] = BLEO/PCC1 vs BLEO group, fold change 2.0, P<0.01

Oc1cc(O)c2c(c1)O[C@H](c1ccc(O)c(O)c1)[C@H](O)[C@H]2c1c(O)cc(O)c2c1O[C@H](c1ccc(O)c(O)c1)[C@H](O)[C@H]2c1c(O)cc(O)c2c1O[C@H](c1ccc(O)c(O)c1)[C@H](O)C2 [PCC1, procyanidin C1]
number of genes significantly down-regulated (senescent PSC27 cells [1]; [3]): 4406 genes
number of genes up-regulated (senescent PSC27 cells [1]; [3]): 2766 genes
expression of SASP factors in senescent cells after treatment (senescent PSC27 cells [1]; RNA-seq heatmap): generally decreased
GSEA molecular signatures of SASP expression or NF-κB activation (senescent PSC27 cells [1]; senescent cells after PCC1): significant repression
risk of death HR, PCC1 group/vehicle group (aged C57BL/6 mice; P<0.0001): 0.35
median survival period after treatment, longer than vehicle group (aged C57BL/6 mice; drug every two weeks): 64.2%
time after addition from which caspase-3/7 activity differs statistically between senescent and control group (senescent PSC27 cells [2]; 50 μM PCC1): 16 h
effect on proliferating cells (apoptosis) (senescent PSC27 cells [2]; proliferating PSC27): basically not targeted or affected

Reference: patent publication US12721832B2, “Anti-senescence plant polyphenol drug downregulating senescence-related secretory phenotype and use thereof” (BYHEALTH CO., LTD., priority 2021, dated 2026)
